System: CHO-K1 cells
Test: Batch fermentation in shake flasks of human IgG1 expressing stable cell populations (Poros A-HPLC titer, viable cell density, viability)
Assay type: cell-based, Chinese hamster
Conditions: pJF1576; for Productivity profile: human IgG1
Method: To efficiently test the impact of different procedures on improving selection stringency, experimental testing in stable cell populations was performed. As test molecules, enhanced green fluorescent protein (GFP) as well as a human IgG1 were chosen. CHO-K1 cells adapted to growth in suspension in defined medium were obtained from SAFC and cultivated in EX-CELL CD CHO Fusion medium (SAFC 14365C). Custom-made EX-CELL CD CHO Fusion medium without L-Proline (Pro) and without L-Ornithine (Orn) ("proline-free medium") was obtained from SAFC. The expression vector system was based on modified versions of "CET 1019 AS-puro-SceI" and "CET 1019 AD-puro-SceI" for GFP and human IgG1, respectively, from Merck-Millipore, containing the Puromycin selection marker (Puromycin N-acetyl-transferase) known to exert a high selection stringency. To minimize variations in cell populations derived from using different transfections or different vectors, the first series of experiments were conducted using vectors into which a P5CS expression cassette was cloned upstream of a UCOE element, in addition to the Puromycin selection marker present downstream of a gene of interest. This way, it was possible to pool different transfections using the same vector to obtain a common starting point, and split the mixture according to different selection conditions, minimizing any variations that are not due to selection conditions themselves. Expression of long and short isoform of murine P5CS (Protein: Delta-1-pyrroline-5-carboxylate synthase; Gene: Aldh18a1; UniProtKB accession number: Q9Z110-1 & Q9Z110-2) was driven by a SV40 promoter. A SV40 polyadenylation sequence was used at the 3' end of the gene. More details can be found in Table 1. Typically, CHO cells were cultivated in EX-CELL CD CHO Fusion medium containing 6 mM GlutaMAX (Thermo Fisher, 35050-38) ("CD-Fusion medium") at 37 °C with 5% CO2. Cells were grown to logarithmic phase under shaking conditions for transfections. 1e7 cells/cuvette were transfected using nucleofection (Amaxa Nucleofector II, following the manufacturer's recommendations) with 5 µg of linearized DNA. After transfection, cells were taken up in 1 ml medium and transferred into 1 well of a 6 well microtiter plate (MTP) already containing 1 ml medium. The cells were incubated for 24 h without shaking, after which 9 ml medium were added and cells were washed (either in standard or proline-free medium). Multiple transfections were pooled, if applicable. Cells were adjusted to 2e5 viable cells/ml and 10 ml were transferred to T-25 flasks. Reference cell populations were selected using 10 µg/ml Puromycin in CD-Fusion medium. For P5CS-based selection, EX-CELL CD CHO Fusion medium (custom-made, SAFC) containing 6 mM GlutaMAX without proline and without ornithine was used ("proline-free" or "CD-Fusion w/o Pro" medium), with or without additional selection pressure.
Cell viability of the different populations was monitored over time. As soon as cell populations appeared to recover from selection pressure, cells were transferred to Shake Flask or TubeSpins for expansion in suspension under shaking conditions. Subsequently, stable cell populations transfected with IgG were seeded at 2e5 viable cells/ml for batch fermentation without selection pressure (i.e. standard CD-Fusion medium containing proline and no other selective agents). The cells were cultivated for 5-10 days, viable cell densities and productivity were monitored over time. IgG titers were determined using Poros A-HPLC method. Typically, final batch titers were recorded at a time point at which majority of cultures had around 70% viability. Stable cell populations transfected with GFP vector were subjected to analysis by flow cytometry using Guava easyCyte 8HT Benchtop Flow Cytometer (Millipore). 250 µl of cell culture were transferred to 96 MTP and washed with PBS. Dead cells were excluded from analysis using propidium iodide (PI). […]

[1] = Day 2 after inoculation, selected in CD-Fusion w/o Pro + 0.4 mM DHP, non-selecting conditions
[2] = Day 3 after inoculation, selected in CD-Fusion w/o Pro + 0.05 mM DHP, selective conditions
[3] = Day 3 after inoculation, selected in CD-Fusion w/o Pro + 0.1 mM DHP, selective conditions
[4] = Day 3 after inoculation, selected in CD-Fusion w/o Pro + 0.2 mM DHP, selective conditions
[5] = Day 3 after inoculation, selected in CD-Fusion w/o Pro + 0.4 mM DHP, selective conditions
[6] = Day 4 after inoculation, selected in CD-Fusion w/o Pro + 0.05 mM DHP, non-selecting conditions
[7] = Day 4 after inoculation, selected in CD-Fusion w/o Pro + 0.1 mM DHP, non-selecting conditions
[8] = Day 4 after inoculation, selected in CD-Fusion w/o Pro + 0.2 mM DHP, non-selecting conditions
[9] = Day 4 after inoculation, selected in CD-Fusion w/o Pro + 0.4 mM DHP, non-selecting conditions
[10] = Day 5 after inoculation, selected in CD-Fusion w/o Pro + 0.05 mM DHP, selective conditions
[11] = Day 5 after inoculation, selected in CD-Fusion w/o Pro + 0.1 mM DHP, selective conditions
[12] = Day 5 after inoculation, selected in CD-Fusion w/o Pro + 0.2 mM DHP, selective conditions
[13] = Day 5 after inoculation, selected in CD-Fusion w/o Pro + 0.4 mM DHP, selective conditions
[14] = Day 7 after inoculation, selected in CD-Fusion w/o Pro + 0.05 mM DHP, non-selecting conditions
[15] = Day 7 after inoculation, selected in CD-Fusion w/o Pro + 0.05 mM DHP, selective conditions
[16] = Day 7 after inoculation, selected in CD-Fusion w/o Pro + 0.1 mM DHP, non-selecting conditions
[17] = Day 7 after inoculation, selected in CD-Fusion w/o Pro + 0.1 mM DHP, selective conditions
[18] = Day 7 after inoculation, selected in CD-Fusion w/o Pro + 0.2 mM DHP, non-selecting conditions
[19] = Day 7 after inoculation, selected in CD-Fusion w/o Pro + 0.2 mM DHP, selective conditions
[20] = Day 7 after inoculation, selected in CD-Fusion w/o Pro + 0.4 mM DHP, non-selecting conditions
[21] = Day 7 after inoculation, selected in CD-Fusion w/o Pro + 0.4 mM DHP, selective conditions
[22] = Day 9 after inoculation, selected in CD-Fusion w/o Pro + 0.05 mM DHP, non-selecting conditions
[23] = Day 9 after inoculation, selected in CD-Fusion w/o Pro + 0.1 mM DHP, non-selecting conditions
[24] = Day 9 after inoculation, selected in CD-Fusion w/o Pro + 0.2 mM DHP, non-selecting conditions
[25] = Day 9 after inoculation, selected in CD-Fusion w/o Pro + 0.4 mM DHP, non-selecting conditions

Question: With `O=C(O)[C@@H]1C=CCN1` [DHP, 3,4-Dehydro-L-Proline] as the compound, how does the “Viable cell density profile” value (Day 2 after inoculation, selected in CD-Fusion w/o Pro + 0.2 mM DHP, non-selecting conditions) read?
Answer: Its value is 6,4E+05 VCD/ml.

Question: What about the Viability profile [1] of the same compound?
Answer: Its Viability profile is 99.3%.

Question: What about the “Viable cell density profile” value [1] of the same compound?
Answer: The value was 8,0E+05 VCD/ml.

Question: And the Viability profile [2]?
Answer: Its Viability profile is 99.3%.

Question: And the “Viable cell density profile” value [2]?
Answer: The value was 5.6E+06 VCD/ml.

Question: What about the Viability profile [3] of the same compound?
Answer: The Viability profile was 99.4%.

Question: What about the “Viable cell density profile” value [3] of the same compound?
Answer: Its value is 7.4E+06 VCD/ml.

Question: And the Viability profile [4]?
Answer: The Viability profile was 99.1%.

Question: And the “Viable cell density profile” value [4]?
Answer: The value was 2.4E+06 VCD/ml.

Question: What about the Viability profile [5] of the same compound?
Answer: The Viability profile was 99.3%.

Question: What about the “Viable cell density profile” value [5] of the same compound?
Answer: Its value is 5.3E+06 VCD/ml.

Question: And the Productivity profile [6]?
Answer: The Productivity profile was 24.2 mg/L.

Question: What about the Productivity profile (Day 4 after inoculation, selected in CD-Fusion w/o Pro + 0.05 mM DHP, selective conditions) of the same compound?
Answer: The Productivity profile was 114.8 mg/L.

Question: What about the Productivity profile [7] of the same compound?
Answer: The Productivity profile was 31.7 mg/L.

Question: What about the Productivity profile (Day 4 after inoculation, selected in CD-Fusion w/o Pro + 0.1 mM DHP, selective conditions) of the same compound?
Answer: Its Productivity profile is 83.8 mg/L.

Question: And the Productivity profile [8]?
Answer: The Productivity profile was 34.6 mg/L.

Question: What about the Productivity profile (Day 4 after inoculation, selected in CD-Fusion w/o Pro + 0.2 mM DHP, selective conditions) of the same compound?
Answer: Its Productivity profile is 104.8 mg/L.

Question: What about the Productivity profile [9] of the same compound?
Answer: Its Productivity profile is 41.0 mg/L.

Question: And the Productivity profile (Day 4 after inoculation, selected in CD-Fusion w/o Pro + 0.4 mM DHP, selective conditions)?
Answer: The Productivity profile was 105.5 mg/L.

Question: What about the Viability profile [6] of the same compound?
Answer: Its Viability profile is 99.8%.

Question: And the “Viable cell density profile” value [6]?
Answer: The value was 5,3E+06 VCD/ml.

Question: What about the Viability profile [7] of the same compound?
Answer: The Viability profile was 99.7%.

Question: And the “Viable cell density profile” value [7]?
Answer: Its value is 6,5E+06 VCD/ml.

Question: What about the Viability profile [8] of the same compound?
Answer: Its Viability profile is 99.5%.

Question: And the “Viable cell density profile” value [8]?
Answer: Its value is 5,2E+06 VCD/ml.

Question: What about the Viability profile [9] of the same compound?
Answer: Its Viability profile is 99.6%.

Question: What about the “Viable cell density profile” value [9] of the same compound?
Answer: Its value is 6,1E+06 VCD/ml.

Question: What about the Viability profile [10] of the same compound?
Answer: Its Viability profile is 96.4%.

Question: What about the “Viable cell density profile” value [10] of the same compound?
Answer: Its value is 9.5E+06 VCD/ml.

Question: And the Viability profile [11]?
Answer: Its Viability profile is 97.5%.

Question: And the “Viable cell density profile” value [11]?
Answer: The value was 1.2E+07 VCD/ml.

Question: And the Viability profile [12]?
Answer: The Viability profile was 98.9%.

Question: What about the “Viable cell density profile” value [12] of the same compound?
Answer: Its value is 6.9E+06 VCD/ml.

Question: And the Viability profile [13]?
Answer: Its Viability profile is 96.1%.

Question: What about the “Viable cell density profile” value [13] of the same compound?
Answer: Its value is 1.1E+07 VCD/ml.

Question: And the Productivity profile [14]?
Answer: Its Productivity profile is 48.6 mg/L.

Question: What about the Productivity profile [15] of the same compound?
Answer: The Productivity profile was 166.2 mg/L.

Question: What about the Productivity profile [16] of the same compound?
Answer: Its Productivity profile is 104.4 mg/L.

Question: What about the Productivity profile [17] of the same compound?
Answer: Its Productivity profile is 125.8 mg/L.

Question: What about the Productivity profile [18] of the same compound?
Answer: The Productivity profile was 87.4 mg/L.

Question: And the Productivity profile [19]?
Answer: The Productivity profile was 179.7 mg/L.

Question: And the Productivity profile [20]?
Answer: The Productivity profile was 116.4 mg/L.

Question: And the Productivity profile [21]?
Answer: The Productivity profile was 133.4 mg/L.

Question: And the Viability profile [14]?
Answer: Its Viability profile is 98.6%.

Question: And the “Viable cell density profile” value [14]?
Answer: Its value is 1,0E+07 VCD/ml.

Question: And the Viability profile [15]?
Answer: The Viability profile was 45.3%.

Question: And the “Viable cell density profile” value [15]?
Answer: Its value is 4.6E+06 VCD/ml.

Question: What about the Viability profile [16] of the same compound?
Answer: Its Viability profile is 95.6%.

Question: And the “Viable cell density profile” value [16]?
Answer: Its value is 7,9E+06 VCD/ml.

Question: What about the Viability profile [17] of the same compound?
Answer: The Viability profile was 32.2%.

Question: What about the “Viable cell density profile” value [17] of the same compound?
Answer: The value was 4.0E+06 VCD/ml.

Question: And the Viability profile [18]?
Answer: The Viability profile was 97.4%.

Question: What about the “Viable cell density profile” value [18] of the same compound?
Answer: The value was 9,6E+06 VCD/ml.

Question: And the Viability profile [19]?
Answer: Its Viability profile is 93.2%.

Question: And the “Viable cell density profile” value [19]?
Answer: Its value is 9.1E+06 VCD/ml.

Question: What about the Viability profile [20] of the same compound?
Answer: Its Viability profile is 98.1%.

Question: What about the “Viable cell density profile” value [20] of the same compound?
Answer: The value was 1,1E+07 VCD/ml.

Question: And the Viability profile [21]?
Answer: The Viability profile was 56.1%.

Question: And the “Viable cell density profile” value [21]?
Answer: The value was 6.9E+06 VCD/ml.

Question: What about the Productivity profile [22] of the same compound?
Answer: Its Productivity profile is 115.5 mg/L.

Question: And the Productivity profile [23]?
Answer: Its Productivity profile is 127.1 mg/L.

Question: What about the Productivity profile [24] of the same compound?
Answer: Its Productivity profile is 153.7 mg/L.

Question: And the Productivity profile [25]?
Answer: Its Productivity profile is 164.7 mg/L.

Question: And the Viability profile [22]?
Answer: Its Viability profile is 19.5%.

Question: What about the “Viable cell density profile” value [22] of the same compound?
Answer: The value was 2,5E+06 VCD/ml.

Question: And the Viability profile [23]?
Answer: The Viability profile was 5.1%.

Question: And the “Viable cell density profile” value [23]?
Answer: Its value is 6,4E+05 VCD/ml.

Question: And the Viability profile [24]?
Answer: The Viability profile was 18.7%.

Question: And the “Viable cell density profile” value [24]?
Answer: Its value is 2,2E+06 VCD/ml.

Question: And the Viability profile [25]?
Answer: Its Viability profile is 21.7%.

Question: And the “Viable cell density profile” value [25]?
Answer: Its value is 3,1E+06 VCD/ml.
